In patent US20220183287A1, “METHODS FOR KILLING PESTS” (The United States of America, as represented by the …, priority 2020, published 2022):
Like-named read-outs stand apart in the source and are kept apart here. Marks after values point to notes of the source that are not given here.

What was measured:
M. incognita = experiment: Greenhouse trial: root galls on cucumber in treated soil; type: in vivo, Meloidogyne incognita; conditions: for reduction of galls per gram of root compared with the Tween control: 0.1%, Trials 1 & 2
Description: Two weeks after transplant, the plants were harvested.
(§1) The assumptions of the model were checked.
The number of carbons is indicated in parentheses.

[1] = system: M. incognita second-stage juveniles; experiment: Microwell assay: previously hatched J2 immersed in compounds, activity and viability; conditions: for mortality at 0.1 %: read-out: nonviable (killed) J2
Method: Nematode cultures: As described in Meyer et al. (Meyer, S. L. F., et al., Nematropica, 46: 85-96 (2016)), M. incognita race 1 (originally isolated in Maryland) was maintained in a greenhouse (24° to 29° C.; natural and supplemental lighting combined for a 16-h daylength) on susceptible cayenne pepper (Capsicum annuum) TA-136′ plants. All greenhouse experiments described herein were conducted under the same conditions. Two to three months after pepper plant inoculation, egg masses were picked from roots. Eggs were separated by 5 min immersion in 0.6% sodium hypochlorite, followed by a rinse in sterile distilled water (SDW). To collect second-stage juveniles (J2) for microwell assays, the surface-sterilized eggs were placed in a hatching chamber (Spectra/Mesh Nylon Filter, openings 25-μm-diam.; Spectrum Laboratories Inc., Rancho Dominguez, Calif.) set in an autoclaved dish that was placed on a rotary shaker for 3 days at 35 rpm. For some M. incognita and H. glycines assays, 25 or […] kanamycin monosulfate (Phytotechnology Laboratories, Shawnee Mission, Kans.) was added to the hatching chamber to prevent growth of bacteria. The collected J2 were then rinsed with water to remove the kanamycin monosulfate.
Compounds for the studies were purchased from three different companies: methyl benzoate, CAS Number 93-58-3, ≥99% purity; Tween 20, CAS Number: 9005-64-5; Tween 80, CAS Number: 9005-65-6; ethyl benzoate, CAS Number: 93-89-0, natural, ≥99% purity, FCC, FG; vinyl benzoate, CAS Number: 769-78-8, ≥99% purity; n-propyl benzoate, CAS Number: 2315-68-6, 99% purity; n-butyl benzoate, CAS Number: 136-60-7, 99% purity; benzyl benzoate, CAS Number: 120-51-4, natural, ≥99% purity, FCC, FG; methyl 2-methylbenzoate, CAS Number: 89-71-4, 99% purity; methyl 2-chlorobenzoate, CAS Number: 610-96-8, ≥98% purity; methyl 2-methoxybenzoate, CAS Number: 606-45-1, 99% purity and methyl 2-nitrobenzoate, CAS Number: 606-27-9, 98% purity were purchased from Sigma-Aldrich (St. Louis, Mo.). Compounds, iso-butyl benzoate, CAS Number 120-50-3, >98% purity; n-pentyl benzoate, CAS Number: 2049-96-9, ≥98% purity; and n-hexyl benzoate, CAS Number: 6789-88-4, ≥98% purity were purchased from Alfa Aesar (Tewksbury, Mass.). The compounds methyl 3-methoxybenzoate (methyl m-anisate), CAS Number: 5368-81-0; 97% and methyl 3-methylbenzoate (methyl m-toluate), CAS Number: 99-36-5, 97% purity were purchased from TCI America (Portland, Oreg.). All chemicals were used without further purification. Deionized water (DI) containing 1% emulsifier (v/v), Tween 20 and Tween 80, at 1:1 ratio was used to make different VOCs (volatile organic compounds) water solutions and also used as blank control.
For tests with individual compounds, the concentration of each compound was 0.1% before placement into wells; the final concentration in the wells was 0.095% after addition to eggs or J2 suspended in water. These are reported as 0.1% herein. An exception was Trial 2, M. incognita J2 activity and viability (Table 2): the final concentration was 0.1% after placement in wells. Low concentrations were selected for assays of combined compounds to determine if the combinations would increase nematotoxicity.
Laboratory assays were conducted in 96-well polystyrene plates following general procedures described in Wen et al. (2019). Each well received approximately 35 J2 (for previously hatched J2 assays) or 35 eggs that each contained either a first-stage juvenile (J1) or a J2. The plates were covered with plastic adhesive sealing film (Excel Scientific, Inc., Victorville Calif.) and then with the plate lids. Parafilm (Bemis, Neenah, Wis.) was used to seal the plates. The nematodes were then incubated at 26° C. […] Following the counts on Day 2, the treatments were removed and the J2 rinsed twice with SDW and incubated in the second rinse. […] Two trials were conducted for each assay.

M. incognita eggs = experiment: Microwell assay: eggs immersed in compounds, hatch and activity of hatched J2; type: in vivo, Meloidogyne incognita; conditions: 0.1%; for % Active Day 2 / % Active Day 5 / % Active Day 7: J2 hatched from immersed eggs; for Hatch Day 2 / Hatch Day 5 / Hatch Day 7: hatched J2 per well, about 35 eggs per well
Method: (§2) All chemicals were used without further purification.
(§3) These are reported as 0.1% herein.
(§4) The nematodes were then incubated at 26° C. […] Two trials were conducted for each assay.
as §1

Heterodera glycines eggs = experiment: as above; type: in vivo; conditions: for % Active Day 2 / % Active Day 5 / % Active Day 7: J2 hatched from immersed eggs; for inactive J2 that hatched from the eggs: by Day 7; for Hatch Day 2 / Hatch Day 5 / Hatch Day 7: hatched J2 per well, about 35 eggs per well; for pest or weed control at 0.1 %: Heterodera glycines, 168 h, read-out: egg hatch suppression compared with the Tween control
Method: as §2, §3, §4, §1

[2] = 0.1%, previously hatched J2 in aqueous solution
[3] = Meloidogyne incognita, 72 h, read-out: % Viable Day 3 rinsed

SMILES	Galls per gram root Trials 1 & 2 (M. incognita; 0.05%, 5,000 eggs per pot)	Galls per gram root Trials 1 & 2 (M. incognita; 0.1%, 5,000 eggs per pot)	reduction of galls per gram of root compared with the Tween control (M. incognita) [%]	% Active Day 1 [1, 2]	% Active Day 2 [1, 2]	viability at 0.1 % [1, 3] [%]	mortality at 0.1 % ([1]; Meloidogyne incognita, 72 h) [%]	% Active Day 2 (M. incognita eggs)	% Active Day 5 (M. incognita eggs)	% Active Day 7 (M. incognita eggs)	Hatch Day 2 (M. incognita eggs)	Hatch Day 5 (M. incognita eggs)	Hatch Day 7 (M. incognita eggs)	% Active Day 2 (Heterodera glycines eggs; 0.1%)	% Active Day 5 (Heterodera glycines eggs; 0.1%)	% Active Day 7 (Heterodera glycines eggs; 0.1%)	inactive J2 that hatched from the eggs (Heterodera glycines eggs; 0.1%)	Hatch Day 2 (Heterodera glycines eggs; 0.1%)	Hatch Day 5 (Heterodera glycines eggs; 0.1%)	Hatch Day 7 (Heterodera glycines eggs; 0.1%)	further results
CCOC(=O)c1ccccc1 [EB, Ethyl benzoate]	22.6 ^bcd	34.2 ^abc	53	0 ^f %	0 ^d %	0	100	0 ^c %	0 ^e %	0 ^c %	2.4 ^cd	3.9 ^cde	4.3 ^de	0 ^e %	0 ^f %	0 ^d %	all J2 that hatched from the eggs were inactive	6.7 ^bcd	6.8 ^bcd	6.6 ^bcd	% Active Day 2 ([1]; 0.025% final concentration): 42.9 ^bc %; viability at 0.025 % [1, 3]: 80.2%
COC(=O)c1cccc(C)c1 [M3MB, Methyl 3-methylbenzoate]	11.2 ^bcdef	6.8 ^defg		0 ^f %	0 ^d %	0	100	0 ^c %	0 ^e %	0 ^c %	1.9 ^cd	2.7 ^cde	2.9 ^de	0 ^e %	0 ^f %	0 ^d %	all J2 that hatched from the eggs were inactive	5.2 ^cd	5.4 ^cd	5.1 ^cd	% Active Day 2 ([1]; 0.015% final concentration): 66.8 ^ab %; viability at 0.015 % [1, 3]: 63.7%; pest or weed control at 0.1 % (Heterodera glycines eggs; 0.1%, Day 7): 64 to 80%
COC(=O)c1ccccc1 [MB, Methyl benzoate]	16.6 ^bcde	7.4 ^defg		0 ^f %	0 ^d %	0	100	0 ^c %	0 ^e %	0 ^c %	2.2 ^cd	3.8 ^cde	4.7 ^de	0 ^e %	0 ^f %	0 ^d %	all J2 that hatched from the eggs were inactive	5.4 ^cd	5.6 ^cd	5.5 ^cd	% Active Day 2 ([1]; 0.0095% final concentration): 22.4 ^d %; viability at 0.0095 % [1, 3]: 75.6%; pest or weed control at 0.1 % (Heterodera glycines eggs): 64 to 80%
C=COC(=O)c1ccccc1 [VB, Vinyl benzoate]	1.8 ^gh	0.1 ^h	~100	0 ^f %	0 ^d %	1	100	0 ^c %	0 ^e %	0 ^c %	2.7 ^cd	2.9 ^cde	2.8 ^de	0 ^e %	0 ^f %	1 ^d %	all J2 that hatched from the eggs were inactive	3.5 ^d	3.5 ^d	3.4 ^d	% Active Day 2 ([1]; 0.008% final concentration, Trial 2 only): 22.4 ^cd %; viability at 0.0008 % [1, 3]: 89.6%; viability at 0.008 % [1, 3]: 43.1%; % Viable Day 3 rinsed ([1]; in vivo): did not result in a significant reduction; hatch suppression compared to the Tween control (Heterodera glycines eggs; 0.1%, Day 2): 76%; pest or weed control at 0.1 % (Heterodera glycines eggs; 0.1%, Day 7): 80%
